Measurements as given in article PMC11650849, “Brain endothelial permeability, transport, and flow assessed over 10 orders of magnitude using the in situ brain perfusion technique” (Fluids and Barriers of the CNS, 2024).
Where two headings read alike, the source gives them in different places.

How the values were obtained:
[1] = rat in vivo measurements; cited from earlier work
[2] = In situ rat brain perfusion (brain uptake Kin, extraction E, BBB PS); details: for Log Pc: Pc in cm/s; for Log Po: Po in cm/s; for Log PoS: PoS in mL/s/g; for PcS: cerebral cortex, S = physiological saline, AB = artificial blood; for Pc / Po: S assumed 100 cm^2/g
[3] = rat, in vivo
[4] = cited from earlier work; for Log Poct: octanol partition coefficient
[5] = cited from earlier work
[6] = Neutral fraction at pH 7.4 calculated from pKa; type: physicochemical
[7] = for Brain Kin: calculated at brain blood flow […] and rat serum fu; for Extraction (unbound) / Brain vascular extraction (total): calculated at brain blood flow […]; for Extraction (unbound): free drug; for Brain vascular extraction (total): with rat serum fu
[8] = rat
[9] = intrinsic PS of neutral solute, PoS = PcS/fn, flow 0.1–[…]
[10] = ref Hansch et al. [123], Avdeef [46] or other sources
[11] = neutral fraction at perfusion fluid pH 7.40, calculated from pKa

| Compound | Brain Vu,br [1] [mL/g] | Log Pc [2] | Log Po [2] | Log PoS [2] | PcS ([2]; flow 0.1–[…]) [mL/s/g] | PoS [2, 9] [mL/s/g] | Log Poct [4, 10] | Log Doct pH=7.4 [4, 10] | fu,.p ([5]; rat in vivo measurements) | fn (%) [6, 11] [%] | PoS ([2]; brain vascular intrinsic PoS) [mL/s/g] | Log Pc ([3]; pH 7.4) | Log PoS ([3]; pH 7.4) | Pc ([3]; pH 7.4) [×10⁻⁶ cm/s] | PcS ([3]; pH 7.4) [mL/s/g] | PoS ([3]; pH 7.4) [mL/s/g] | Log Po ([3]; pH 7.4) | Po ([3]; pH 7.4) [cm/s] | other results |
| --- | --- | --- | --- | --- | --- | --- | --- | --- | --- | --- | --- | --- | --- | --- | --- | --- | --- | --- | --- |
| O=C[C@@H](O)[C@H](O)[C@@H](O)[C@@H](O)CO [L-Glucose] | 0.13 | −6.90 | −6.90 | −4.90 | 1.25e-05 | 1.25e-05 | −3.18 | −3.18 | 1.00 | 100 |  |  |  |  |  |  |  |  | Pc [3]: 0.125 ×10⁻⁶ cm/s; Po [3]: 1.25e-07 cm/s |
| Inulin | 0.02 | −8.12 | −8.12 | −6.12 | 7.5e-07 | 7.5e-07 | −4.36 | −4.13 | 1.00 | 89.0 | 7.5e-07 |  |  |  |  |  |  |  | Pc [2]: 0.0075 ×10⁻⁶ cm/s; Po [2]: 0.0075 ×10⁻⁶ cm/s |
| CN(C)CCCN1c2ccccc2Sc2ccc(Cl)cc21 [Chlorpromazine] |  |  |  |  |  |  |  |  | 0.0354 | 1.42 |  | −2.51 | 1.30 | 3090 | 0.31 | 19.8 | −0.70 | 0.20 | BBB PcS ([3]; pH 7.4): 0.31 ± 0.05 mL/s/g; Extraction (Kin/F) ([3]; pH 7.4): 100%; Brain Kin [7]: 0.00885 mL/s/g; Extraction (unbound) [7]: 100%; Brain vascular extraction (total) [7]: 36.6%; Maximal flow—90% extraction, PcS/2.3 ([7]; protein-free saline, pH 7.4): 0.13 mL/s/g; half-life ([8]; brain): 61.1 min |
| OCCCO [1,3 Propanediol] | 1.02 | −4.29 | −4.29 | −2.29 | 0.0052 | 0.00516 | −0.92 | −0.92 | 1.00 | 100 | 0.00516 |  |  |  |  |  |  |  | Pc [3]: 51.6 ×10⁻⁶ cm/s; Po [3]: 5.16e-05 cm/s |
| CC(C)(C)OC(=O)CCCc1ccc(N(CCCl)CCCl)cc1 [t-butyl chlorambucil] |  |  |  |  |  |  | 5.24 | 5.24 | 2.0E−03 | 100 |  |  |  |  |  |  |  |  | Brain Extraction (%) [3]: 24%; Log Pc [3]: −0.49; Log PoS [3]: 1.51; Pc [3]: 321000 ×10⁻⁶ cm/s; PcS [3]: 32.1 mL/s/g; PoS [3]: 32.1 mL/s/g; Log Po [3]: −0.49; Po [3]: 0.32 cm/s; Log Poct ([4]; ref Hansch et al. [123], Avdeef [46] or other sources, listed as t-butyl-chlorambucil): 5.2; Maximal flow—90% extraction, PcS/2.3 ([7]; pH 7.4): 14.0 mL/s/g |
| O=C(O)CCCc1ccc(N(CCCl)CCCl)cc1 [Chlorambucil] |  |  |  |  |  |  | 3.41 | 0.61 | 0.01 | 0.16 |  | −3.54 | 1.26 | 287 | 0.029 | 18.14 | −0.74 | 0.18 | Brain Equilibration t1/2, Measured ([3]; pH 7.4): 0.75 min; half-life [8]: 1.23 min; half-life ([8]; plasma): 1.2 min |
| CCC1(c2ccccc2)C(=O)NC(=O)NC1=O [Phenobarbital] |  |  |  |  |  |  | 1.53 | 1.51 | 0.25 | 47.7 |  | −4.19 | −1.86 | 65.1 | 0.0065 | 0.0136 | −3.86 | 0.000136 | half-life [8]: 7.39 min |
| CC(C)Cc1ccc(C(C)C(=O)O)cc1 (stereo not shown) [Ibuprofen] | 3.38 |  |  |  |  |  |  |  | 0.016 | 0.11 |  |  |  |  |  |  |  |  |  |
| CO [Methanol] | 1.06 | −3.56 | −3.56 | −1.56 | 0.028 | 0.0278 | −0.52 | −0.52 | 1.00 | 100 | 0.0278 |  |  |  |  |  |  |  | Pc [2]: 278 ×10⁻⁶ cm/s; Po [2]: 278 ×10⁻⁶ cm/s |
| CC(=O)CC(c1ccccc1)c1c(O)c2ccccc2oc1=O (stereo not shown) [Warfarin] | 3.03 |  |  |  |  |  |  |  | 8.0E−03 | 0.01 |  | −4.15 | 1.71 | 70.6 | 0.0071 | 51.2 | −0.29 | 0.51 |  |
| CC(C)NC(C)Cc1ccc(I)cc1 (stereo not shown) [Iofetamine, isopropyl-iodoamphetamine] |  | −2.54 | −1.02 | 0.98 | 0.29 | 9.49 | 3.26 | 1.75 | 0.25 | 3.07 | 9.49 |  |  |  |  |  |  |  | Pc [2]: 2910 ×10⁻⁶ cm/s; Po [2]: 94900 ×10⁻⁶ cm/s; BBB PcS ([2]; protein-free saline, differing/elevated flow rates, best fit): 0.238 mL/s/g; Maximal flow—90% extraction, PcS/2.3 ([7]; pH 7.4): 0.13 mL/s/g; Peak flow rate for 90% E ([7]; pH 7.4): 7.6 mL/min/g; half-life [8]: 3.16 min |
| NC(=O)CI [Iodoacetamide] | 1.11 | −4.04 | −4.04 | −2.04 | 0.0092 | 0.00917 | −0.19 | −0.19 | 0.92 | 100 | 0.00917 |  |  |  |  |  |  |  | Pc [2]: 91.7 ×10⁻⁶ cm/s; Po [2]: 91.7 ×10⁻⁶ cm/s |
| OCCCCO [1,4-Butanediol] |  |  |  |  |  |  |  |  |  |  |  | −3.82 | −1.82 | 151 | 0.015 | 0.0151 | −3.82 | 0.000151 | Log Doct pH=7.4 [4]: −0.52; fu,.p ([5]; rat): 1.00; fn (%) ([6]; pH 7.4): 100%; half-life [8]: 1.14 min |
| Erythrosine B |  |  |  |  |  |  |  |  |  | 7.8E−06 |  |  |  |  |  |  |  |  | Log Pc [3]: −5.19; Log PoS [3]: 3.92; Pc [3]: 6.53 ×10⁻⁶ cm/s; PcS [3]: 0.00065 mL/s/g; Log Po [3]: 1.92; Po [3]: 83.48 cm/s; Log Doct pH=7.4 [4]: −0.15; Brain Kin [7]: 6.53e-06 mL/s/g; Extraction (unbound) [7]: 2.7%; Brain vascular extraction (total) [7]: 0.027%; fu,.p ([5]; rat): 0.01 |
| Cn1c(=O)c2[nH]cnc2n(C)c1=O [Theophylline] |  |  |  |  |  |  | 0.00 | 0.00 |  | 100 |  |  |  |  |  |  |  |  | half-life ([8]; brain): 4.6 min |
| CCCCNC(=O)NS(=O)(=O)c1ccc(C)cc1 [Tolbutamide] |  |  |  |  |  |  |  |  |  | 0.61 |  |  |  |  |  |  |  |  | half-life ([8]; brain): 3.27 min |
